The test system of assay [1] is B. firmus DPC6349. Kind of assay: Minimum inhibitory concentration (MIC) assay, two-fold serial dilutions in LB broth. Type of assay: cell-based, Bacillus firmus. The note with it: for MIC, fold higher than thuricin CD: B. firmus DPC6349, in molar values. Here is the method:
In this study, B. firmus DPC6349 was utilized as a surrogate thuricin CD-sensitive host, in lieu of thuricin CD-sensitive C. difficile strains. The aerobic growth conditions of DPC6349, in conjunction with its class I status, facilitated the FC experiments in this study. MIC assays were conducted as previously described with minor modifications ([Mathur et al., 2013]). Briefly, cells of the bacteriocin-sensitive strain B. firmus DPC6349 were grown overnight for 16 h in LB broth at 37°C with vigorous agitation (150 rpm). The following day, the cells were subcultured until they reached mid-logarithmic phase (an OD600 of approximately 0.5). At this point, cells were diluted such that the final inoculum for MIC assays was approximately 5 × 10^5 cfu/ml. Thuricin CD peptides, Nisin A and lacticin 3147 peptides were resuspended in LB broth. The potassium ionophore, valinomycin, was initially reconstituted in DMSO (Molecular Probes) prior to diluting in PBS and subsequently diluting in LB broth. All antimicrobials were finally diluted in LB broth to give the desired starting concentrations and two-fold serial dilutions were performed in 96-well microtitre plates, for MIC assays. MIC readings were taken at 18 h and the MIC was defined as the lowest concentration of the antimicrobial at which there was no visible growth of the target strain. Assays were conducted in triplicate.

The subject of assay [2] is B. firmus DPC6349 cells. Kind of assay: Time course flow cytometry of membrane potential (DiOC2(3)), cell size (FSC) and granularity (SSC). Type of assay: cell-based, Bacillus firmus. The source says: Used alone or in combination with fluorescent probes, FC enables the assessment of various structural and functional cell properties, often leading to a deeper characterization of the physiological heterogeneity of a microbial population ([Díaz et al., 2010]). Membrane potential in microbial cells can be detected by FC following staining with fluorescent lipophilic cell-permeant probes such as DiOC2(3). […] Conversely, fluorescence-independent monitoring by FC of the forward (FSC) and side-angle (SSC) light scattering properties of a bacterial population provides useful information about morphological parameters such as cell size and internal granularity/complexity, respectively ([Díaz et al., 2010]; [Shapiro, 2015]). The impact of the thuricin CD peptides, Trnα and Trnβ, on the membrane potential and morphology of sensitive B. firmus DPC6349 cells was therefore assessed by FC as follows. Cells from a 100 μl aliquot of an overnight culture were recovered by centrifugation (8260 g for 10 min), diluted 10-fold in 1 ml of LB broth and activated by incubation at 37°C for 30 min. At this point, the cells were diluted a further 25-fold and stained for 30 min with a solution of 6.3 μM DiOC2 (3) (Thermo Fisher Scientific), prepared in PBS and containing 0.21% glucose to energize the cells and thereby generate a large membrane potential. Aliquots of 1.4 ml of stained samples were acquired at medium flow rate (35 μl/sec) using a BD Accuri C6 flow cytometer (Becton Dickinson, Belgium) and a threshold of 10000 on FSC to minimize background. Acquisition and analysis of DiOC2(3) fluorescence (FL3, > 670 nm long pass), cell size (FSC) and cell complexity/granularity (SSC) were carried out using the BD Accuri C6 software v. 1.0.2 (Becton Dickinson, Belgium). The microbial population was identified based on its light scattering properties on FSC versus SSC bi-plots and a gating strategy was used to discriminate it from background particles and cell debris. The time course changes in membrane potential and morphology of DPC6349 cells following challenge with an antimicrobial were assessed using the “Run Unlimited” function of the C6 flow cytometer. Unchallenged DiOC2(3)-stained cells were initially acquired for 2 min to establish baseline levels of membrane potential and morphological parameters. Subsequently, a small aliquot of a 10–15x stock solution of an antimicrobial in PBS was added and its effect on the physiology of the sensitive target monitored over 15–25 min. The impact on the host’s membrane potential of individual, combined and sequentially added thuricin CD peptides, Trnα or Trnβ, was compared to those exerted by the proton motive force (PMF)-depleting agents Nisin A ([Bruno et al., 1992]), lacticin 3147 ([McAuliffe et al., 1998]), and valinomycin ([Shapiro, 2004]). Stock solutions of valinomycin were prepared in DMSO, whereas diluted working solutions were made using PBS. To generate high external potassium conditions and trigger the membrane depolarizing activity of valinomycin ([Shapiro, 2004]; [Cronin, 2015]), 150mM KCl was added to the PBS used to prepare the DiOC2(3) staining solution. Assays were conducted in duplicate.
(In general: In flow cytometry, cells or beads pass a laser one at a time.)

Setting [3] is: B. firmus DPC6349, approx. 5 × 10^5 cfu/ml, LB broth, read at 18 h, no visible growth, triplicate.

Like-named read-outs stand apart in the source and are kept apart here. Where no end group is shown, it is not given here.

Turning to `O=C(N[C@H](CO)[C@H](O)c1ccc([N+](=O)[O-])cc1)C(Cl)Cl` [Chloramphenicol, chloramphenicol], the MIC was determined as 2.423 µg/mL in assay [1] (setting [3]) and 7.5 µM in assay [1] (Cytobacillus firmus, B. firmus DPC6349, approx. 5 × 10^5 cfu/ml, LB broth, read at 18 h, no visible growth, triplicate, read-out: MIC). Besides, the “MIC, fold higher than thuricin CD” value in assay [1] was 60 fold. The “Effect on membrane potential and cell size” value in assay [2] ((approximately 3x MIC), DiOC2(3)) is “no membrane depolarization and reduction in cell size”.
For `CC(C)[C@@H]1NC(=O)[C@H](C)OC(=O)[C@@H](C(C)C)NC(=O)[C@@H](C(C)C)OC(=O)[C@H](C(C)C)NC(=O)[C@H](C)OC(=O)[C@@H](C(C)C)NC(=O)[C@@H](C(C)C)OC(=O)[C@H](C(C)C)NC(=O)[C@H](C)OC(=O)[C@@H](C(C)C)NC(=O)[C@@H](C(C)C)OC1=O` [Valinomycin, valinomycin], the MIC in assay [1] (setting [3]) turned out to be 0.69 µg/mL; in assay [1] (Cytobacillus firmus, DPC6349, 18 h) it was 0.625 µM. Besides, the “MIC, fold higher than thuricin CD” value in assay [1] is on record as “five-fold higher”. Also, the “Effect on cell size and granularity” value in assay [2] (156 nM (0.25x MIC), 150 mM extracellular KCl) was “no reduction in cell size or granularity”. For the same compound, the “Effect on membrane potential” value in assay [2] (156 nM (0.25x MIC), 150 mM extracellular KCl, DiOC2(3)) is “immediate and sharp membrane depolarization”.
With “Nisin A (ITSISLCTPGCKTGALMGCNMKTATCHCSIHVSK; also: lantibiotic post-translational modifications (thioether rings), not given here; UniProt P13068 24-57, looked up) [pore-forming single-component lantibiotic bacteriocin]”, the MIC in assay [1] (setting [3]) was found to be 1.046 µg/mL; in assay [1] (B. firmus DPC6349, approx. 5 × 10^5 cfu/ml, LB broth, read at 18 h, no visible growth, triplicate, read-out: MIC) it was 0.312 µM. Besides, the “MIC, fold higher than thuricin CD” value in assay [1] is “approximately 2.5 fold”. Besides, in assay [2] (3 μM (approximately 10x MIC)), the “Effect on cell size (FSC) and granularity (SSC)” value was “decreases in cell size (FSC) and granularity/complexity (SSC)”. In addition, in assay [2] (3 μM (approximately 10x MIC), DiOC2(3) red fluorescence), the “Effect on membrane potential” value is recorded as “very fast membrane depolarization”. Further, the “Time to membrane depolarization after adding the peptide” value in assay [2] (3 μM (approximately 10x MIC), DiOC2(3)-stained energized cells, duplicate) is recorded as not above 4 min.

By MIC is commonly meant the lowest concentration found to suppress growth.

The record behind these values is paper PMC5397516, “Insights into the Mode of Action of the Sactibiotic Thuricin CD” (Frontiers in Microbiology, 2017).
